O=C(O)/C=C/C(=O)O
solubility (mole fraction)
Details	in acetone	in ethanol	in isopropanol	in n-propanol	in water
279 K	0.00344	0.0126	0.0109	0.00847	0.000136
285 K	0.00419	0.014	0.0138	0.0103	0.000435
291 K	0.00498	0.0157	0.0169	0.0122	0.000813
297 K	0.00583	0.0178	0.0202	0.0143	0.00125
303 K	0.00673	0.0205	0.0236	0.0165	0.00171
309 K	0.00768	0.0233	0.0272	0.0189	0.00221
315 K	0.00867	0.0267	0.031	0.0215	0.00265
321 K	0.00972	0.0305	0.0349	0.0243	0.00328
327 K	0.0108	0.0344	0.0391	0.0274	0.00415
333 K	0.012	0.0383	0.0435	0.0306	0.00541
339 K	–	–	–	0.0355	0.00624
342 K	–	–	0.0538	–	–
343 K	–	0.0451	–	–	–
345 K	–	–	–	0.0398	–
351 K	–	–	0.0656	–	–
351.8 K	–	–	–	0.0486	–
353 K	–	–	–	–	0.00884

Source: BigSolDB 2.1
